The test relates to CD2F1 mice, L1210 leukemia ip, survival T/C. The test can be described thus: NCI In Vivo Anticancer Drug Screen. Data for tumor model L1210 Leukemia (intraperitoneal) in CD2F1 (CDF1) mice. The following applies: higher = longer survival. In outline: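 Activity against a transplanted murine tumor was judged by comparing the compound group with a vehicle group. The outcome in the treated animals was divided by that in the controls.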

The mark [1] stands for this setting: endpoint: mean survival time, dose: 100.0 mg/kg/injection, schedule: Q04DX002 (ip), vehicle: saline with Tween-80.
The mark [2] stands for this setting: endpoint: mean survival time, dose: 200.0 mg/kg/injection, schedule: Q04DX002 (ip), vehicle: saline with Tween-80.
Where [3] appears, read: endpoint: mean survival time, dose: 100.0 mg/kg/injection, schedule: Q01DX001 (ip), vehicle: saline.

For nine compounds, T/C results are on record in PubChem BioAssay AID256 (DTP/NCI, 2004).

Several values for one entry are separate records, joined by “and”; a condition that tells them apart may be missing. Equal entries are not always repeated. Toxic doses and inconclusive results are not listed.

With `c1cc2n(n1)CCN2`, the T/C was 95 % of control (endpoint: mean survival time, dose: 8.0 mg/kg/injection, schedule: Q03HX008 (ip), vehicle: saline); 96 % of control (endpoint: mean survival time, dose: 8.0 mg/kg/injection, schedule: Q03HX016 (ip), vehicle: saline); 102 % of control (endpoint: mean survival time, dose: 8.0 mg/kg/injection, schedule: Q03HX024 (ip), vehicle: saline); 98 % of control (endpoint: mean survival time, dose: 16.0 mg/kg/injection, schedule: Q03HX008 (ip), vehicle: saline); 97 % of control (endpoint: mean survival time, dose: 16.0 mg/kg/injection, schedule: Q03HX016 (ip), vehicle: saline); 104 % of control (endpoint: mean survival time, dose: 16.0 mg/kg/injection, schedule: Q03HX024 (ip), vehicle: saline). For the same compound, the T/C was 103 % of control (endpoint: mean survival time, dose: 25.0 mg/kg/injection, schedule: Q01DX009 (ip), vehicle: saline); 100 % of control (endpoint: mean survival time, dose: 32.0 mg/kg/injection, schedule: Q01DX005 (ip), vehicle: saline); 102 % of control (endpoint: mean survival time, dose: 32.0 mg/kg/injection, schedule: Q03HX008 (ip), vehicle: saline); 98 % of control (endpoint: mean survival time, dose: 32.0 mg/kg/injection, schedule: Q03HX016 (ip), vehicle: saline); 107 % of control (endpoint: mean survival time, dose: 32.0 mg/kg/injection, schedule: Q03HX024 (ip), vehicle: saline); 98 % of control (endpoint: mean survival time, dose: 50.0 mg/kg/injection, schedule: Q04DX003 (ip), vehicle: saline). Further, the T/C (endpoint: mean survival time, dose: 50.0 mg/kg/injection, schedule: Q04DX003 (iv), vehicle: saline) is 98 % of control; the T/C (endpoint: mean survival time, dose: 64.0 mg/kg/injection, schedule: Q01DX005 (ip), vehicle: saline) is 103 % of control; the T/C (endpoint: mean survival time, dose: 64.0 mg/kg/injection, schedule: Q01DX009 (ip), vehicle: saline) is 97 % of control; the T/C (endpoint: mean survival time, dose: 64.0 mg/kg/injection, schedule: Q03HX008 (ip), vehicle: saline) is 109 % of control; the T/C (endpoint: mean survival time, dose: 64.0 mg/kg/injection, schedule: Q03HX016 (ip), vehicle: saline) was 102 % of control; the T/C (endpoint: mean survival time, dose: 64.0 mg/kg/injection, schedule: Q03HX024 (ip), vehicle: saline) is 116 % of control. Also, the T/C runs as follows: (endpoint: mean survival time, dose: 100.0 mg/kg/injection, schedule: Q01DX009 (ip), vehicle: saline) 120 % of control; (endpoint: mean survival time, dose: 100.0 mg/kg/injection, schedule: Q04DX003 (ip), vehicle: saline) 102 % of control; (endpoint: mean survival time, dose: 100.0 mg/kg/injection, schedule: Q04DX003 (ip), vehicle: water) 120 % of control and 105 % of control; (endpoint: mean survival time, dose: 100.0 mg/kg/injection, schedule: Q04DX003 (iv), vehicle: saline) 98 % of control; (endpoint: mean survival time, dose: 128.0 mg/kg/injection, schedule: Q01DX001 (ip), vehicle: saline) 104 % of control; (endpoint: mean survival time, dose: 128.0 mg/kg/injection, schedule: Q01DX005 (ip), vehicle: saline) 114 % of control. In addition, the T/C by setting is: (endpoint: mean survival time, dose: 128.0 mg/kg/injection, schedule: Q01DX009 (ip), vehicle: saline) 122 % of control; (endpoint: mean survival time, dose: 128.0 mg/kg/injection, schedule: Q04DX003 (ip), vehicle: saline) 105 % of control; (endpoint: mean survival time, dose: 128.0 mg/kg/injection, schedule: Q08DX002 (ip), vehicle: saline) 104 % of control; (endpoint: mean survival time, dose: 200.0 mg/kg/injection, schedule: Q01DX009 (ip), vehicle: saline) 118 % of control; (endpoint: mean survival time, dose: 200.0 mg/kg/injection, schedule: Q04DX003 (ip), vehicle: saline) 108 % of control; (endpoint: mean survival time, dose: 200.0 mg/kg/injection, schedule: Q04DX003 (ip), vehicle: water) 115 % of control and 120 % of control. Besides, the T/C is 101 % of control (endpoint: mean survival time, dose: 200.0 mg/kg/injection, schedule: Q04DX003 (iv), vehicle: saline); 110 % of control (endpoint: mean survival time, dose: 256.0 mg/kg/injection, schedule: Q01DX001 (ip), vehicle: saline); 107 % of control (endpoint: mean survival time, dose: 256.0 mg/kg/injection, schedule: Q01DX005 (ip), vehicle: saline); 100 % of control (endpoint: mean survival time, dose: 256.0 mg/kg/injection, schedule: Q01DX009 (ip), vehicle: saline); 106 % of control (endpoint: mean survival time, dose: 256.0 mg/kg/injection, schedule: Q08DX002 (ip), vehicle: saline); 124 % of control (endpoint: mean survival time, dose: 400.0 mg/kg/injection, schedule: Q04DX003 (ip), vehicle: saline). The T/C by setting is: (endpoint: mean survival time, dose: 400.0 mg/kg/injection, schedule: Q04DX003 (ip), vehicle: water) 153 % of control; (endpoint: mean survival time, dose: 512.0 mg/kg/injection, schedule: Q04DX003 (ip), vehicle: saline) 159 % of control; (endpoint: mean survival time, dose: 512.0 mg/kg/injection, schedule: Q08DX002 (ip), vehicle: saline) 165 % of control; (endpoint: mean survival time, dose: 600.0 mg/kg/injection, schedule: Q04DX003 (ip), vehicle: water) 101 % of control.
As for `O=C1CCC(C(=O)Nc2ccc(Cl)cc2Cl)N1` (stereo not drawn), the T/C by setting is: (endpoint: mean survival time, dose: 25.0 mg/kg/injection, schedule: Q04DX002 (ip), vehicle: saline with Tween-80) 98 % of control; (endpoint: mean survival time, dose: 50.0 mg/kg/injection, schedule: Q04DX002 (ip), vehicle: saline with Tween-80) 98 % of control; under setting [1], 98 % of control; under setting [2], 118 % of control; (endpoint: mean survival time, dose: 400.0 mg/kg/injection, schedule: Q04DX002 (ip), vehicle: saline with Tween-80) 97 % of control.
Turning to `Cn1c(=O)[nH]c2c(c1=O)CCO2`, the T/C reads like this: under setting [3], 103 % of control; (endpoint: mean survival time, dose: 200.0 mg/kg/injection, schedule: Q01DX001 (ip), vehicle: saline) 97 % of control; (endpoint: mean survival time, dose: 400.0 mg/kg/injection, schedule: Q01DX001 (ip), vehicle: saline) 100 % of control.
With `O=C(OCC#CCOC(=O)c1c(Cl)ccc(Cl)c1Cl)c1c(Cl)ccc(Cl)c1Cl`, the T/C by setting is: under setting [1], 89 % of control; under setting [2], 89 % of control.
`CN1CCc2cc3c(cc2C1)OCO3`: the T/C is, setting by setting: (endpoint: mean survival time, dose: 75.0 mg/kg/injection, schedule: Q01DX001 (ip), vehicle: other) 98 % of control; under setting [3], 97 % of control; (endpoint: mean survival time, dose: 150.0 mg/kg/injection, schedule: Q01DX001 (ip), vehicle: other) 92 % of control.
As for `CCCCCC(CN(C)C)C(=O)/C=C/c1ccc(Cl)c(Cl)c1` (stereo not drawn), the T/C was 92 % of control (endpoint: mean survival time, dose: 6.25 mg/kg/injection, schedule: Q01DX009 (ip), vehicle: acetone); 94 % of control (endpoint: mean survival time, dose: 12.5 mg/kg/injection, schedule: Q01DX009 (ip), vehicle: acetone); 97 % of control (endpoint: mean survival time, dose: 25.0 mg/kg/injection, schedule: Q01DX009 (ip), vehicle: acetone).
For `Cc1cc(Br)c[nH]c1=O`, the T/C by setting is: (endpoint: mean survival time, dose: 100.0 mg/kg/injection, schedule: Q01DX001 (ip), vehicle: saline with Tween-80) 104 % of control; (endpoint: mean survival time, dose: 100.0 mg/kg/injection, schedule: Q01DX009 (ip), vehicle: saline with Tween-80) 94 % of control; (endpoint: mean survival time, dose: 200.0 mg/kg/injection, schedule: Q01DX001 (ip), vehicle: saline with Tween-80) 108 % of control; (endpoint: mean survival time, dose: 200.0 mg/kg/injection, schedule: Q01DX009 (ip), vehicle: saline with Tween-80) 100 % of control; (endpoint: mean survival time, dose: 400.0 mg/kg/injection, schedule: Q01DX001 (ip), vehicle: saline with Tween-80) 104 % of control.
In the case of `O.O.O=C(O)c1ccccc1C(=O)O.[NH-]C1CCCCC1[NH-].[Pt+2]`, the T/C was 109 % of control (endpoint: mean survival time, dose: 3.13 mg/kg/injection, schedule: Q04DX003 (ip), vehicle: dextrose); 106 % of control (endpoint: mean survival time, dose: 6.25 mg/kg/injection, schedule: Q04DX003 (ip), vehicle: dextrose); 106 % of control (endpoint: mean survival time, dose: 25.0 mg/kg/injection, schedule: Q04DX003 (ip), vehicle: dextrose); 95 % of control (endpoint: mean survival time, dose: 50.0 mg/kg/injection, schedule: Q04DX003 (ip), vehicle: dextrose).
With `COc1cc2c(c(OC)c1O)-c1ccc(OC)c(=O)cc1[C@@H](NC(=O)C(F)(F)F)CC2`, the T/C runs as follows: (endpoint: median survival time, dose: 0.62 mg/kg/injection, schedule: Q01DX009 (ip), vehicle: Klucel (hydroxypropylcellulose) (HPC)) 118 % of control; (endpoint: median survival time, dose: 1.25 mg/kg/injection, schedule: Q01DX009 (ip), vehicle: Klucel (hydroxypropylcellulose) (HPC)) 123 % of control; (endpoint: median survival time, dose: 2.5 mg/kg/injection, schedule: Q01DX005 (ip), vehicle: Klucel (hydroxypropylcellulose) (HPC)) 164 % of control; (endpoint: median survival time, dose: 3.0 mg/kg/injection, schedule: Q01DX005 (ip), vehicle: Klucel (hydroxypropylcellulose) (HPC)) 175 % of control; (endpoint: median survival time, dose: 5.0 mg/kg/injection, schedule: Q01DX005 (ip), vehicle: Klucel (hydroxypropylcellulose) (HPC)) 171 % of control; (endpoint: median survival time, dose: 8.32 mg/kg/injection, schedule: Q01DX005 (ip), vehicle: Klucel (hydroxypropylcellulose) (HPC)) 167 % of control. Also, the T/C (endpoint: median survival time, dose: 10.0 mg/kg/injection, schedule: Q01DX005 (ip), vehicle: Klucel (hydroxypropylcellulose) (HPC)) is 160 % of control and the T/C (endpoint: median survival time, dose: 13.88 mg/kg/injection, schedule: Q01DX005 (ip), vehicle: Klucel (hydroxypropylcellulose) (HPC)) is 164 % of control.
